Reference: patent US8541379B2 (Ajinomoto Co., Inc., priority 2009, dated 2013)
Marks after values point to notes of the source that are not given here.

Experiments:
Assay type in all cases: in vivo, human
[1] = Quantitative sensory evaluation test of kokumi-imparting activity; conditions: n=4
Experimental: This quantitative sensory evaluation test was carried out according to the following procedures: The intensity of the kokumi-imparting activity observed for each test compound was determined as a value observed when blending 0.00001 to 0.5 g/dL of the corresponding test compound with the distilled water containing sodium glutamate (0.05 g/dL), inosinic acid monophosphate (0.05 g/dL), and sodium chloride (0.5 g/dL). […] The evaluation criteria are assumed to be as follows: control: 0 point; strong: 3 points; very strong: 5 points. Moreover, to clarify the criteria, the initial taste and the middle/after taste of γ-Glu-Val-Gly were set at 3.0 points, respectively. The scoring or rating was carried out using the method of line scale and more specifically, it was carried out by writing each corresponding score on a straight line on which points corresponding to −5˜0˜5 had been indicated. The panelists used in this test were defined to be persons who had been engaged in the development of seasonings for foods over not less than one year of the cumulative time period and who could judge that the difference in the titer between γ-Glu-Cys-Gly and γ-Glu-Val-Gly added to a solution having umami/salty taste is about 10 times (while confirming the ability of these persons at regular intervals). The evaluation was carried out at n (the number of panelists used)=4. The term “initial taste” means the taste which develops from 0 to 2 seconds after the sample is placed in the panelist's mouth, while the term “middle/after taste” means the taste which develops thereafter.
In addition, γ-Glu-Val-Gly, γ-Glu-Cys, γ-Glu-Val, γ-Glu-Ala and γ-Glu-Ser were likewise inspected for their kokumi-imparting effect according to the same procedures used above.

[2] = Paired comparison sensory test, basil (Labiatae) herb/spice solution; conditions: 0.5% basil solution, N=9
Experimental: More specifically, the sensory evaluation test was carried out according to the following procedures: Commercially available typical herb/spice in powdery form was dispersed in water in a concentration of 0.5% by mass to thus form a herb/spice solution. This solution was admixed with γ-Glu-Nva, γ-Glu-Cys-Gly, or γ-Glu-Abu as a test compound. According to the paired comparison test, the panelists were requested to comparatively evaluate the following three samples and to judge whether “any of them was preferred since it could enhance the flavor and taste of the herb/spice solution without changing the balance between them”: (1) 0.02% by mass of γ-Glu-Cys-Gly whose kokumi-imparting activity was identical to 0.00015% by mass of γ-Glu-Nva; (2) 0.00015% by mass of γ-Glu-Abu, the amount of which was identical to 0.00015% by mass of γ-Glu-Nva; (3) 0.003% by mass of γ-Glu-Abu whose kokumi-imparting activity was identical to that observed for 0.00015% by mass of γ-Glu-Nva. The panelists used in this test were persons who had been engaged in the development of seasonings for foods over not less than one year of the cumulative time period and who could judge that the difference in the titer between γ-Glu-Cys-Gly and γ-Glu-Val-Gly added to a solution having umami/salty taste is about 10 times (while confirming the ability of these persons at regular intervals). The evaluation was carried out at N (the number of panelists used)=9.

[3] = Paired comparison sensory test, solution of tomato catsup; conditions: 33.3% tomato catsup solution, N=9, significant level of 1%
Experimental: More specifically, the sensory evaluation test was carried out according to the following procedures: Commercially available tomato catsup for popular use was dispersed in hot water in a concentration of 33.3% by mass to thus form a solution of tomato catsup. This solution was admixed with γ-Glu-Nva, γ-Glu-Cys-Gly, or γ-Glu-Abu as a test compound. According to the paired comparison test method (pair test), the panelists were requested to comparatively evaluate the following three samples and to judge whether “any of them was preferred or favorable since it could enhance the flavor and taste of the solution of tomato catsup without changing the balance between them”: (1) 0.02% by mass of γ-Glu-Cys-Gly whose kokumi-imparting activity was identical to 0.0004% by mass of γ-Glu-Nva; (2) 0.0004% by mass of γ-Glu-Abu, the amount of which was identical to 0.0004% by mass of γ-Glu-Nva; (3) 0.003% by mass of γ-Glu-Abu whose kokumi-imparting activity was identical to that observed for 0.0004% by mass of γ-Glu-Nva. The panelists used in this test were persons who had been engaged in the development of seasonings for foods over not less than one year of the cumulative time period and who could judge that the difference in the titer between γ-Glu-Cys-Gly and γ-Glu-Val-Gly added to a solution having umami/salty taste was about 10 times (while confirming the ability of these persons at regular intervals). The evaluation was carried out at N (the number of panelists used)=9.
However, the results observed for tomato catsup are shown in Table 6 as the typical example thereof.

[4] = Paired comparison sensory test, solution of miso; conditions: 10.0% miso solution, N=9
Experimental: More specifically, the sensory evaluation test was carried out according to the following procedures: Commercially available miso (ingredients: soybeans and barley) for popular use was dispersed in hot water in a concentration of 10.0% by mass to thus form a solution of miso. This solution was admixed with γ-Glu-Nva, γ-Glu-Cys-Gly, or γ-Glu-Abu as a test compound. According to the paired comparison test method (pair test), the panelists were requested to comparatively evaluate the following three samples and to judge whether “any of them was preferred or favorable since it could enhance the flavor and taste of the solution of miso without changing the balance between them”: (1) 0.02% by mass of γ-Glu-Cys-Gly whose kokumi-imparting activity was identical to 0.0004% by mass of γ-Glu-Nva; (2) 0.0004% by mass of γ-Glu-Abu, the amount of which was identical to 0.0004% by mass of γ-Glu-Nva; (3) 0.003% by mass of γ-Glu-Abu whose kokumi-imparting activity was identical to that observed for 0.0004% by mass of γ-Glu-Nva. The panelists used in this test were persons who had been engaged in the development of seasonings for foods over not less than one year of the cumulative time period and who could judge that the difference in the titer between γ-Glu-Cys-Gly and γ-Glu-Val-Gly added to a solution having umami/salty taste is about 10 times (while confirming the ability of these persons at regular intervals). The evaluation was carried out at N (the number of panelists used)=9.

With `CCC[C@H](NC(=O)CC[C@H](N)C(=O)O)C(=O)O` [γ-Glu-Nva, γ-L-glutamyl-L-norvaline] the “Sensory Evaluation Profile” value ([1]; 0.0001 g/dL in umami/salty solution) was “Mainly the initial and middle tastes”, the “Intensity of kokumi, Middle/After Taste” value ([1]; 0.0001 g/dL in water with MSG 0.05, IMP 0.05, NaCl 0.5 g/dL) was 2.8 points and the “Intensity of kokumi, Initial Taste” value ([1]; 0.0001 g/dL in water with MSG 0.05, IMP 0.05, NaCl 0.5 g/dL, scale control 0, strong 3, very strong 5) was 3.6 points. For the same compound, the “No. of Panelists who judged γ-Glu-Nva rather preferred” value ([2]; 0.00015 wt % γ-Glu-Nva vs 0.00015 wt % γ-Glu-Abu, significant level of 1%) was 9/9**, the “No. of Panelists who judged γ-Glu-Nva rather preferred” value ([2]; 0.00015 wt % γ-Glu-Nva vs 0.003 wt % γ-Glu-Abu, significant level of 5%) was 8/9*** and the “No. of Panelists who judged γ-Glu-Nva rather preferred” value ([2]; 0.00015 wt % γ-Glu-Nva vs 0.02 wt % γ-Glu-Cys-Gly, significant level of 1%) was 9/9**. The “No. of Panelists who judged γ-Glu-Nva rather preferred” value ([3]; 0.0004 wt % γ-Glu-Nva vs 0.0004 wt % γ-Glu-Abu) was 9/9**, the “No. of Panelists who judged γ-Glu-Nva rather preferred” value ([3]; 0.0004 wt % γ-Glu-Nva vs 0.003 wt % γ-Glu-Abu) was 9/9** and the “No. of Panelists who judged γ-Glu-Nva rather preferred” value ([3]; 0.0004 wt % γ-Glu-Nva vs 0.02 wt % γ-Glu-Cys-Gly) was 9/9**. For the same compound, the “No. of Panelists who judged γ-Glu-Nva rather preferred” value ([4]; 0.0004 wt % γ-Glu-Nva vs 0.0004 wt % γ-Glu-Abu, significant level of 1%) was 9/9***, the “No. of Panelists who judged γ-Glu-Nva rather preferred” value ([4]; 0.0004 wt % γ-Glu-Nva vs 0.003 wt % γ-Glu-Abu, significant level of 1%) was 9/9*** and the “No. of Panelists who judged γ-Glu-Nva rather preferred” value ([4]; 0.0004 wt % γ-Glu-Nva vs 0.02 wt % γ-Glu-Cys-Gly, significant level of 5%) was 8/9**.
